Three compounds from patent US6646129B2, “Cyanoguanidines as cell proliferation inhibitors” (Leo Pharmaceutical Products Ltd. A/S, priority 1997, dated 2003) can be followed below.

Common to all, as to format: cell-based
Experiment [1] deals with human breast cancer (MCF-7) cell line. Description: Inhibition of tumour cell proliferation in vitro, [3H]thymidine incorporation, MCF-7. The conditions noted are these: MCF-7 cells, 24 hours with compound, DNA synthesis by [3H]thymidine incorporation. How it is done: (§1) The inhibition of tumour cell proliferation was studied using different types of human cancer cell lines. The cell lines under investigation were small cell lung carcinoma (NYH), non small cell lung carcinoma (NCl-H460), and breast cancer (MCF-7) using the following general procedure:
(§2) The cells were cultured in vitro for 24 hours in the presence of the compound under investigation. DNA synthesis was measured by incorporation of [^3H]thymidine, and the median inhibitory concentrations (IC50) of the compounds were calculated.

Experiment [2] has as its system human non small cell lung cancer (NCI-H460) cell line. Description: Inhibition of tumour cell proliferation in vitro, [3H]thymidine incorporation, NCI-H460. The following applies: NCI-H460 cells, 24 hours with compound, DNA synthesis by [3H]thymidine incorporation. How it is done: as §1, §2
(In general: Incorporation of labelled thymidine or its analogues reports DNA synthesis.)

Experiment [3] deals with human small cell lung carcinoma (NYH) cell line. Description: Inhibition of tumour cell proliferation in vitro, [3H]thymidine incorporation, NYH. The following applies: NYH cells, 24 hours with compound, DNA synthesis by [3H]thymidine incorporation. Here is the method: as §1, §2

On to `CC(C)(C)OC(=O)NCCCCCCCCCCCCNC(=Nc1ccncc1)NC#N` [Example No. 1, N-(1 2-t-Butoxycarbonylaminododecyl)-N′-cyano-N″-4-pyridylguanidine], for which the IC50 (commonly the concentration at which inhibition is half-maximal) in experiment [1] (Homo sapiens, MCF7) amounted to 3.6 nM; in experiment [2] (Homo sapiens) it was 45 nM; in experiment [3] (Homo sapiens) it was 0.62 nM.

With `CCP(=O)(CC)OCCCCCCCCCCCNC(=Nc1ccncc1)NC#N` [Example No. 8, N-Cyano-N′-(11-diethylphosphinoyloxyundecanyl)-N″-4-pyridylguanidine], the IC50 in experiment [1] (Homo sapiens, MCF7) came out at 1.7 nM; in experiment [2] (Homo sapiens) it was 6 nM; in experiment [3] (Homo sapiens) it was 0.48 nM.

With `N#CNC(=NCCCCCCCCCCCOC1CCCCO1)Nc1ccncc1` (stereo not drawn) [Example No. 7, N-Cyano-N′-4-pyridyl-N″-(11-tetrahydropyranyloxyundecanyl)guanidine], the 50% inhibitory concentration (IC50) in experiment [1] came out at 4.2 nM; in experiment [2] it was 4.6 nM; in experiment [3] it was 0.51 nM.
